Data published in the METLIN SMRT retention time set (Domingo-Almenara et al. 2019).
Blank lines part the entries; values can stand above or below the compound they belong to.

Assay: gradient 5% acetonitrile 3 min, to 50% in 2 min, to 85% in 15 min, held 3 min, 100 µL/min
Details: column: Zorbax Extend-C18 2.1 x 50 mm; eluents: water / acetonitrile, 0.1% formic acid
Outline: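 Standards, all pure, were combined into mixtures of ~100 molecules and run at 100 μL/min on a Zorbax Extend-C18 column (2.1 × 50 mm, 1.8 μm) with water and acetonitrile, each containing 0.1% formic acid. A coupled quadrupole time-of-flight mass spectrometer operated in positive and negative ionization mode. Retention time values come from computationally picked adduct peaks, each inspected manually.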

- RP-LC retention time: 884 s
Structure (SMILES): CCn1c(C)cc(O)c(C(c2ccccc2[N+](=O)[O-])c2c(O)cc(C)n(CC)c2=O)c1=O

- RP-LC retention time: 898 s
Structure (SMILES): O=C(NCc1ccccn1)c1cc(-c2cccnc2)nc2ccc(Br)cc12

- RP-LC retention time: 600 s
Structure (SMILES): O=C(NCc1ccco1)c1coc(NC(=O)C2CC2)n1

- RP-LC retention time: 648 s
Structure (SMILES): CNC(=O)N1CCC(CCc2nc(C3CCOCC3)no2)CC1

- RP-LC retention time: 558 s
Structure (SMILES): CN(CCNC(=O)NCc1noc2ccccc12)C1CCCCC1

- RP-LC retention time: 1330 s
Structure (SMILES): Cc1cc(C)c(C)c(S(=O)(=O)N2CCCC2c2nc(-c3ccccc3)no2)c1C (stereo not given)

- RP-LC retention time: 997 s
Structure (SMILES): CCc1cc(C(=O)Nc2ccc(Cl)cc2)no1

- RP-LC retention time: 647 s
Structure (SMILES): NC(=O)c1ccc(-c2nc(-c3ccc4c(c3)OCO4)c(-c3ccccn3)[nH]2)cc1

- RP-LC retention time: 920 s
Structure (SMILES): COc1ccc(-c2ccnc3nc(Cc4ccc(F)cc4)nn23)cc1

- RP-LC retention time: 668 s
Structure (SMILES): COCCCNc1ncc(C(=O)O)c(-c2cccc(OC)c2)n1

- RP-LC retention time: 840 s
Structure (SMILES): Cc1sc(NC(=O)C(F)(F)F)nc1-c1ccc2c(c1)NC(=O)C(C)O2 (stereo not given)

- RP-LC retention time: 788 s
Structure (SMILES): COc1ccc(OC)c(NC(=O)NC2CCN(c3ccccc3)C2=O)c1 (stereo not given)

- RP-LC retention time: 658 s
Structure (SMILES): COc1ccc(-c2ncc3c(n2)CCN(C(=O)Nc2c(F)cccc2F)C3)cc1

- RP-LC retention time: 845 s
Structure (SMILES): CCc1ccccc1NC(=O)Cc1csc2nc(-c3ccccc3)cn12

- RP-LC retention time: 701 s
Structure (SMILES): Cc1ccccc1NC(=O)Cn1ccc2sccc2c1=O

- RP-LC retention time: 774 s
Structure (SMILES): Cc1ccc(CSc2ncnc3nc[nH]c23)cc1

- RP-LC retention time: 935 s
Structure (SMILES): CCOC(=O)C1CCN(c2c(C#N)cnc3ccc(Cl)cc23)CC1

- RP-LC retention time: 1050 s
Structure (SMILES): COc1ccc(S(=O)(=O)N2CCc3nc(-c4ccc(F)cc4)ncc3C2)cc1

- RP-LC retention time: 734 s
Structure (SMILES): O=C(N[C@H](Cc1ccccc1)C(=O)NCc1cscn1)c1ccccc1F

- RP-LC retention time: 745 s
Structure (SMILES): O=C(NCc1ccccc1F)C1CC(=O)N(c2ccc3c(c2)CCN3C(=O)C2CC2)C1 (stereo not given)

- RP-LC retention time: 611 s
Structure (SMILES): Cn1nc2ccc(S(=O)(=O)N3CCOCC3)cn2c1=O

- RP-LC retention time: 664 s
Structure (SMILES): CCCCNC(=O)CCc1cc2cc(OC)ccc2[nH]c1=O

- RP-LC retention time: 669 s
Structure (SMILES): Cc1ccc(C)c(-c2cc3c4nnc(CCC(=O)N5CCC(C(N)=O)CC5)n4ccn3n2)c1

- RP-LC retention time: 814 s
Structure (SMILES): COc1ccc(-c2cc3n(n2)CCCN(S(=O)(=O)c2cccc(C#N)c2)C3)cc1OC

- RP-LC retention time: 923 s
Structure (SMILES): COc1ccc(NC(=O)c2csc(-c3cn(C)c4ncccc34)n2)cc1

- RP-LC retention time: 877 s
Structure (SMILES): COc1ccccc1-c1noc(C2CCCN2C(=O)Nc2ccc(C)cc2)n1 (stereo not given)

- RP-LC retention time: 790 s
Structure (SMILES): Cc1ccc(CNC(=O)C2(C)CN(S(C)(=O)=O)CC(=O)N2c2ccc(F)cc2C)cc1 (stereo not given)

- RP-LC retention time: 694 s
Structure (SMILES): COCCN1CCn2cc(S(=O)(=O)Nc3ccc(F)cc3F)cc2C1=O

- RP-LC retention time: 894 s
Structure (SMILES): O=C(Cn1ccn2nc(-c3ccc(F)cc3)c(CO)c2c1=O)Nc1cc(F)ccc1Cl

- RP-LC retention time: 1220 s
Structure (SMILES): O=c1cc(-c2ccncc2)nc(N2CCCC2)n1Cc1ccccc1F

- RP-LC retention time: 870 s
Structure (SMILES): Cc1noc(C)c1S(=O)(=O)N1CCC(C(=O)NCc2csc(-c3ccccc3)n2)CC1

- RP-LC retention time: 772 s
Structure (SMILES): CC1CCN(c2cncnc2-n2cc(NC(=O)Nc3cccc(F)c3)cn2)CC1

- RP-LC retention time: 617 s
Structure (SMILES): Cc1cc(N2CCN(C(=O)Nc3ccccc3F)CC2)nc(N2CCOCC2)n1

- RP-LC retention time: 1070 s
Structure (SMILES): COc1ccc(-c2ncc3c(n2)CCN(S(=O)(=O)c2ccccc2Cl)C3)cc1

- RP-LC retention time: 629 s
Structure (SMILES): O=C(NCC1CCCCC1)C1(CCO)CCN(c2ncccn2)C1 (stereo not given)

- RP-LC retention time: 1260 s
Structure (SMILES): CCCOc1nc2ccccc2nc1N1CCCC(C(=O)Nc2cccc(CC)c2)C1 (stereo not given)

- RP-LC retention time: 691 s
Structure (SMILES): COc1cc(NC(=O)c2c(OC)cc(=O)n3c2CCCC3)cc(OC)c1

- RP-LC retention time: 738 s
Structure (SMILES): Cc1cc(NC(=O)CN2C(=O)C3CCCCN3c3ccc(C(=O)N4CCCC4)cc32)no1 (stereo not given)

- RP-LC retention time: 1130 s
Structure (SMILES): Cc1ccc2c(c1)N(Cc1nc(-c3ccc(Cl)cc3)no1)C(=O)CO2

- RP-LC retention time: 699 s
Structure (SMILES): O=C(c1cn2c(n1)COCC2)N1CCN(c2ccc(Cl)cc2)CC1

- RP-LC retention time: 991 s
Structure (SMILES): COc1ccc(NC(=O)C2CCCN(S(=O)(=O)c3cc(-c4noc(C)n4)cs3)C2)cc1Cl (stereo not given)

- RP-LC retention time: 674 s
Structure (SMILES): COc1cccc(NC(=O)CCC2CCN(c3cc(NC4CC4)ncn3)CC2)c1

- RP-LC retention time: 675 s
Structure (SMILES): Fc1ccccc1CN1CCCN(c2ncccc2-c2nc(C3CC3)no2)CC1

The next lines start with the compound.

Structure (SMILES): COc1ccc2c(C)c(C(=O)Nc3ccc4cn[nH]c4c3)oc2c1
- RP-LC retention time: 794 s

Structure (SMILES): COc1ccc(C2C(C(C)=O)=C(O)C(=O)N2CCCN2CCOCC2)c(OC)c1 (stereo not given)
- RP-LC retention time: 554 s

Structure (SMILES): Cc1cccc(Sc2nccnc2N2CCC(C(=O)NCc3cccc(Cl)c3)CC2)c1
- RP-LC retention time: 1150 s

Structure (SMILES): COCCCNC(=O)C1CCN(S(=O)(=O)N(CC(C)C)CC(C)C)CC1
- RP-LC retention time: 877 s

Structure (SMILES): Cc1nn(CC(=O)NCc2ccco2)c(=O)c2nn(-c3ccccc3)c(C)c12
- RP-LC retention time: 732 s

Structure (SMILES): Cc1ccccc1CNC(=O)Cn1c(=O)c2nnc(C)n2c2ncccc21
- RP-LC retention time: 672 s

Structure (SMILES): Cc1c(C(=O)Nc2nccs2)nnn1-c1ccc2noc(-c3ccc(Cl)cc3)c2c1
- RP-LC retention time: 1020 s

Structure (SMILES): CCn1cc(-c2nc(C(=O)NCc3ccccc3Cl)cs2)c2cccnc21
- RP-LC retention time: 1070 s

Structure (SMILES): O=C(Cn1nc(N2CCSCC2)c2ccccc2c1=O)Nc1ccccc1F
- RP-LC retention time: 928 s

Structure (SMILES): COc1ccc(-c2nc3cc(F)ccc3s2)cc1OC
- RP-LC retention time: 1030 s

Structure (SMILES): O=C(Nc1nc2c(s1)CN(C(=O)c1cc(-c3ccccc3)on1)CC2)C1CCCO1 (stereo not given)
- RP-LC retention time: 785 s

Structure (SMILES): Cc1noc(C)c1CC(=O)N1CC(F)(F)C[C@H]1COc1ccc2c(c1)CCC2
- RP-LC retention time: 1060 s

Structure (SMILES): CCOC(=O)C1CCCN(C(=O)CCCOc2cc(=O)n(C)c3ccccc23)C1 (stereo not given)
- RP-LC retention time: 800 s

Structure (SMILES): CNS(=O)(=O)c1ccc(Cl)c(-c2nnc(-c3ccccc3)o2)c1
- RP-LC retention time: 870 s

Structure (SMILES): O=C(CSc1nnc(-c2cccnc2)o1)Nc1c(Cl)cccc1Cl
- RP-LC retention time: 654 s

Structure (SMILES): CN(C)C(=O)CN1CCN(c2ccccc2)CC1
- RP-LC retention time: 792 s

Structure (SMILES): CCCN(C(=O)Cc1ccc(OC)c(OC)c1)c1nc(-c2ccc(C)cc2)cs1
- RP-LC retention time: 1310 s

Structure (SMILES): CC1(C(=O)NC2CCCCC2)CN(S(=O)(=O)c2ccccc2)CC(=O)N1c1cccc(F)c1 (stereo not given)
- RP-LC retention time: 940 s

Structure (SMILES): CS(=O)(=O)N1CCC(OC2CCN(C(=O)Nc3ccc(F)cc3F)CC2)CC1
- RP-LC retention time: 720 s

Structure (SMILES): CCC(C)NC(=O)CN1C(=O)CSc2c1c(C)nn2-c1ccccc1 (stereo not given)
- RP-LC retention time: 764 s

Structure (SMILES): COc1ccc(C2(C(=O)N3CCC(OCCOc4ccc(F)cc4)CC3)CC2)cc1
- RP-LC retention time: 997 s

Structure (SMILES): COC(=O)COC(=O)c1cn(-c2ccc(F)cc2)c(=O)c2ccccc12
- RP-LC retention time: 919 s

Structure (SMILES): O=C(NCCCN1CCCC1)C1CCCN(c2ncc(-c3ccc(F)cc3)cn2)C1 (stereo not given)
- RP-LC retention time: 674 s

Structure (SMILES): Cc1ccc(-c2noc(C3CCCN3S(=O)(=O)c3ccc(F)c(Cl)c3)n2)cc1 (stereo not given)
- RP-LC retention time: 1240 s

Structure (SMILES): CCOC(=O)c1c(S(=O)(=O)N2CCC(C(=O)Nc3ccccn3)CC2)c(C)n(C)c1C
- RP-LC retention time: 678 s

Structure (SMILES): Cc1nc(C(=O)N2CCN(Cc3ccc(C)c(C)c3)CC2)c(C)o1
- RP-LC retention time: 619 s

Structure (SMILES): Cc1ccc2c(=O)c3c([nH]c2c1C)CCN(CC(=O)Nc1cccc(C#N)c1)C3
- RP-LC retention time: 607 s

Structure (SMILES): Cc1nc(-c2csc(S(=O)(=O)N3CCC(C(=O)N4CCC(C)CC4)CC3)c2)no1
- RP-LC retention time: 903 s

Structure (SMILES): O=C(Nc1ccc(F)c(Cl)c1)N1CCc2nc[nH]c2C1
- RP-LC retention time: 614 s

Structure (SMILES): CCC1Oc2ccc(S(=O)(=O)N3CCC(C(=O)N(CC)c4cccc(C)c4)CC3)cc2NC1=O (stereo not given)
- RP-LC retention time: 974 s

Structure (SMILES): CSc1nnc(Cc2nnc(SC)n2-c2ccccc2)n1-c1ccccc1
- RP-LC retention time: 784 s

Structure (SMILES): Cc1c(C(=O)N2CCSCC2)cnn1-c1ncccc1-c1nc(C2CC2)no1
- RP-LC retention time: 740 s

Structure (SMILES): N#Cc1cccc(-c2cn3c(n2)N(C(=O)c2cccc(F)c2)CCC3)c1
- RP-LC retention time: 749 s

Structure (SMILES): COC(=O)N1CCC(c2ccc(OC)cc2)C1 (stereo not given)
- RP-LC retention time: 758 s

Structure (SMILES): O=C(Nc1ccccc1)N1CCC(n2cnc3c(Cl)cccc3c2=O)CC1
- RP-LC retention time: 784 s

Structure (SMILES): CN1CCN(S(=O)(=O)c2cc(-c3nnc(C4CCCC4)o3)co2)CC1
- RP-LC retention time: 619 s

Structure (SMILES): CCOC(=O)[C@H]1[C@H]2C=C[C@]3(CN(c4ccccc4C)C(=O)[C@@H]13)O2
- RP-LC retention time: 717 s

Structure (SMILES): Cc1cc(C)c(C)c(S(=O)(=O)N2CCn3c(nn(CC4CC4)c3=O)C2)c1C
- RP-LC retention time: 943 s

Structure (SMILES): NC(=O)[C@@H]1C[C@H](Oc2cccnc2)CN1C(=O)Cn1c(=O)oc2ccccc21
- RP-LC retention time: 564 s

Structure (SMILES): Cc1ccc(-c2nc3ccc(C)cn3c2Nc2ccc3c(c2)OCCO3)cc1
- RP-LC retention time: 715 s

Structure (SMILES): Cc1c(-c2noc(-c3ccc(F)cc3)n2)nnn1-c1ccccc1
- RP-LC retention time: 994 s

Structure (SMILES): COc1cc(-c2nc3ccc(C)cn3c2Nc2ccc(Cl)cc2)ccc1O
- RP-LC retention time: 698 s

Structure (SMILES): O=C(NCC1CCN(C(=O)Oc2ccccc2)CC1)C(=O)Nc1ccc2c(c1)OCCO2
- RP-LC retention time: 853 s

Structure (SMILES): CCC(C)NC(=O)CCCn1c(=O)c2cccn2c2ccccc21 (stereo not given)
- RP-LC retention time: 760 s

Structure (SMILES): COc1ccc(Nc2c(-c3ccc(Cl)cc3)nc3ncccn23)cc1OC
- RP-LC retention time: 748 s

Structure (SMILES): CN(C)c1ccc(N2C=C(C(=O)N3CCCC3)S(=O)(=O)c3ccc(Cl)cc32)cc1
- RP-LC retention time: 928 s

Structure (SMILES): Cc1noc(CNC(=O)Cc2ccc(F)cc2)n1
- RP-LC retention time: 643 s
